Measurements published in patent US11203777B2, “Method of preparing sterilized compositions for stabilization of extracellular nucleic acids” (Qiagen GmbH, priority 2015, dated 2021).
Each block holds one compound with its values, some of them ahead of it. Residues, ends and D or L forms follow the SMILES beside them. *: point of attachment. Cbz = O=C(OCc1ccccc1)*; CH2F = FC*

Tests used:
[1] = HPLC quantification of caspase inhibitor in stabilization reagent before and after gamma irradiation; type: physicochemical; details: for [Casp] (Pre-Irr) / [Casp] (Post-Irr): 50 ml bulk; for [Casp] (Post-Irr): 25 kGy
Method: Caspase inhibitor (Q-VD-OPh) was dissolved and diluted in DMSO for generation of a standard curve. Concentrations of 7.5, 15, 30 and 60 μg/ml were used to generate the standard curve.
Stabilization reagents containing a mixture of caspase inhibitor, EDTA, DMPA and PEG were tested before and after gamma irradiation. Unique peaks for caspase inhibitor were identified and compared to the standard curve for total quantification of caspase inhibitor. The concentration of caspase inhibitor was determined before and after irradiation, and these concentrations were compared for relative quantification.
For the production of PAXgene Blood ccfDNA Alpha blood collection tubes (Alpha BCT), BD standard tubes for 10 ml blood draw were filled with 1.3-1.7 ml ccfDNA stabilization reagent. The exemplary stabilization reagents tested comprised a mixture of caspase inhibitor (Q-VD-OPh), K2EDTA, DMPA, PEG300 and PEG10000, according to PCT/EP2015/055699. A vacuum was applied to the tubes to allow for a 10.25 ml blood draw. Tubes were sterilized by gamma irradiation using Cobalt-60 as energetic gamma ray source in a range of 5 to 35 kGy. […]
Stabilization reagents were produced with or without the addition of radical scavengers and sterilized in bulk by gamma irradiation. The caspase inhibitor concentration was measured by HPLC before and after irradiation to determine the effect of scavenger addition on caspase inhibitor degradation during sterilization by gamma irradiation.
Stabilization reagents according to PCT/EP2015/055699 were produced with or without the addition of radical scavengers in different concentrations and with different concentrations of caspase inhibitor. PAXgene Blood ccfDNA Alpha tubes were produced by filling 1.7 ml of the respective stabilization reagent into a standard Vacutainer. Tubes were sterilized by gamma irradiation with different energy levels. The caspase inhibitor concentration was measured by HPLC before and after irradiation (see Table 7 below).

[2] = tested on: ccfDNA level in whole blood (66 bp and 500 bp fragments of the 18S rDNA gene); experiment: ccfDNA stabilization in stored whole blood, real time PCR of 18S rDNA fragments in plasma; details: for copy numbers of the 500 bp fragment of the 18S rDNA gene: caspase inhibitor approx. 5 μM in stabilized blood; for change of copy numbers (x fold change) of 66 bp and 500 bp fragments of the 18S rDNA gene: 6 days at room temperature, FIG. 3
Method: Blood was drawn into Alpha BCT for stabilization of the ccfDNA level. 10 ml spray dried EDTA tubes (BD) with 1.8 mg K2EDTA per ml of whole blood served as non-stabilized negative control. Blood and reagents were mixed by inverting the tube ten times. Stabilized and non-stabilized blood samples were stored at room temperature standing in an upright position.
Whole blood samples were centrifuged at ambient temperature for 15 min at 1.900×g. The clear plasma fraction was transferred into a fresh centrifuge tube. In a second round, plasma samples were centrifuged for 10 min at 16.000×g in case of non-stabilized EDTA-blood or for 10 min at 1.900×g in case of stabilized Alpha BCT blood. The supernatant was transferred into a new tube and used either directly for the purification of ccfDNA or stored at −20° C. until use.
DNA from plasma was isolated with the QIAamp circulating nucleic acid kit (QIAGEN GmbH), using the protocol for purification of circulating nucleic acids from 1 ml, 2 ml, or 3 ml serum or plasma. If not stated otherwise, 2 ml of plasma was mixed with proteinase K and lysis buffer ACL, incubated for 30 min at 60° C., mixed with buffer ACB, bound on QIAamp Mini columns with the use of a QIAvac 24 Plus vacuum manifold, washed and eluted with 60 μl elution buffer AVE, according to the manufactures recommendations.
ccfDNA from 2 ml plasma was isolated with a preliminary version of the QIAsymphony Circulating DNA protocol and kit (QIAGEN). If not stated otherwise, the QIAsymphony robot mixed 2 ml of plasma with proteinase K, binding buffer and magnetic beads. Beads with bound DNA were washed three times and DNA was eluted using 60 μl elution buffer.
To measure the amount of ccfDNA, a real time PCR assay on Abi Prism HT7900 (Life Technologies) was performed with 3 μl of eluate. In a 20 μl assay volume using QuantiTect Multiplex PCR Kit reagents (QIAGEN GmbH), two fragments of the human 18S rDNA gene were amplified in a multiplex PCR. Total quantification was achieved by comparison with a standard curve generated with human genomic DNA diluted from 3000 to 0.3 genome equivalents (1 genome equivalent equates to around 6.6 μg of human genomic DNA).
Quantification of the 66 bp fragment was used to reflect the total amount of 18S rDNA copies in the plasma. Quantification of the 500 bp was used to determine the amount of 18S rDNA copies which derived from apoptotic or mechanically lysed leukocytes from whole blood. […] The increase of copy numbers from the 500 bp fragment between day 0 and 3 or 6 days storage, was used as a measurement of stability efficiency.
PAXgene Blood ccfDNA Alpha tubes were produced and sterilized by gamma irradiation with different energy levels. Samples of 10 ml whole blood from eight donors were collected in 10 ml spray dry K2EDTA tubes (non-stabilized controls) and in PAXgene Blood ccfDNA Alpha tubes. Plasma was generated from 5 ml of stabilized or non-stabilized blood samples directly after blood draw. Residual blood was stored for additional 6 days at room temperature before plasma generation. ccfDNA was purified manually from 2 ml plasma, copy numbers of 18S rDNA gene were determined in triplicates by real time PCR.
Samples of 10 ml whole blood from eight donors were collected in 10 ml spray dry K2EDTA tubes. Directly after blood draw, non-stabilized blood samples were stabilized by addition of 1.7 ml of a ccfDNA stabilization reagent according to PCT/EP2015/055699 with or without addition of the different compounds tested for their impact on extracellular nucleic acid stabilization.
Plasma was generated from 5 ml of stabilized blood samples directly after the blood draw (day 0).

[3] = scavenger 1 mg/ml, casp-inh. 5 μM, 0 kGy
[4] = scavenger 1 mg/ml, casp-inh. 5 μM, 20 kGy
[5] = scavenger 1 mg/ml, casp-inh. 5 μM, 30 kGy
[6] = scavenger 5-10 mg/ml, 0.5-1% (w/v)
[7] = 6 donors, 5 days at room temperature, FIG. 10
[8] = scavenger 0.1-1 mg/ml, 0.01-0.1% (w/v)
[9] = scavenger 0.5-10 mg/ml, 0.05-1% (w/v)

Compound: COC(=O)CC(NC(=O)OC(C)(C)C)C(=O)CF [Boc-D-(OMe)-FMK]
- copy numbers of the 500 bp fragment of the 18S rDNA gene [2, 7]: comparable to the fragment numbers in blood stabilized with the PAXgene Blood ccfDNA Tube

Compound: O=C(O)c1cc(O)c(O)c(O)c1 [Gallic acid]
- [Casp] (Pre-Irr) ([1]; scavenger 500 μg/ml-2.9 mM): 16.633 µg/mL
- [Casp] (Post-Irr) ([1]; scavenger 500 μg/ml-2.9 mM): 0.5888 µg/mL
- Protection against gamma irradiation ([1]; scavenger 0.5-2 mg/ml, 0.2% (w/v)): none
- change of copy numbers (x fold change) of 66 bp and 500 bp fragments of the 18S rDNA gene ([2]; scavenger 2 mg/ml in non-irradiated reagent, 8 donors): lead to an increased release of DNA

Compound: CC(C)O [Isopropanol]
- Protection against gamma irradiation ([1]; scavenger 1% (v/v)): none
- [Casp] (Pre-Irr) ([1]; scavenger 1%): 16.572 µg/mL
- [Casp] (Post-Irr) ([1]; scavenger 1%): 0.8517 µg/mL

Compound: O=C(OC[C@H]1O[C@@H](OC(=O)c2cc(O)c(O)c(OC(=O)c3cc(O)c(O)c(O)c3)c2)[C@H](OC(=O)c2cc(O)c(O)c(OC(=O)c3cc(O)c(O)c(O)c3)c2)[C@@H](OC(=O)c2cc(O)c(O)c(OC(=O)c3cc(O)c(O)c(O)c3)c2)[C@@H]1OC(=O)c1cc(O)c(O)c(OC(=O)c2cc(O)c(O)c(O)c2)c1)c1cc(O)c(O)c(OC(=O)c2cc(O)c(O)c(O)c2)c1 [Tannic acid]
- change of copy numbers (x fold change) of 66 bp and 500 bp fragments of the 18S rDNA gene ([2]; scavenger 1 mg/ml in non-irradiated reagent, 8 donors): lead to an increased release of DNA

Compound: COC(=O)C[C@H](NC(=O)[C@H](C)NC(=O)[C@@H](NC(=O)OCc1ccccc1)C(C)C)C(=O)CF [Z-VAD (OMe)-FMK, Z-Val-Ala-Asp(OMe)-FMK] (Cbz-Val-Ala-Asp(OMe)-CH2F)
- copy numbers of the 500 bp fragment of the 18S rDNA gene [2, 7]: comparable to the fragment numbers in blood stabilized with the PAXgene Blood ccfDNA Tube

Compound: Cc1ncc(CO)c(CO)c1O [vitamin B6, pyridoxine]
- number of 500 bp fragments of the 18S rDNA gene compared to the stabilization reagent without scavenger (irradiated) ([2]; 2 mg/ml in reagent, irradiated (30 kGy) as well as unirradiated, 8 donors, 5 days at room temperature, FIG. 9): only half

Continued, in another order:

- HPLC Testing [C-Inh] [1, 3]: 18.2 µg/mL
- HPLC Testing [C-Inh] [1, 4]: 7.0 µg/mL
- HPLC Testing [C-Inh] [1, 5]: 5.0 µg/mL
- HPLC Testing [C-Inh] ([1]; scavenger 2 mg/ml, casp-inh. 5 μM, 10 kGy): 15.2 µg/mL
- HPLC Testing [C-Inh] ([1]; scavenger 2 mg/ml, casp-inh. 5 μM, 20 kGy): 10.7 µg/mL
- HPLC Testing [C-Inh] ([1]; scavenger 2 mg/ml, casp-inh. 5 μM, 30 kGy): 9.5 µg/mL
- [Casp] (Pre-Irr) ([1]; scavenger 5 mg/ml-27.5 mM): 16.522 µg/mL
- [Casp] (Post-Irr) ([1]; scavenger 5 mg/ml-27.5 mM): 12.5986 µg/mL
- HPLC Testing [C-Inh] ([1]; scavenger 5 mg/ml, casp-inh. 5 μM, 0 kGy): 19.2 µg/mL
- HPLC Testing [C-Inh] ([1]; scavenger 5 mg/ml, casp-inh. 5 μM, 10 kGy): 16.0 µg/mL
- HPLC Testing [C-Inh] ([1]; scavenger 5 mg/ml, casp-inh. 5 μM, 20 kGy): 12.8 µg/mL
- HPLC Testing [C-Inh] ([1]; scavenger 5 mg/ml, casp-inh. 5 μM, 30 kGy): 12.1 µg/mL
- HPLC Testing [C-Inh] ([1]; scavenger 5 mg/ml, casp-inh. 10 μM, 0 kGy): 37.7 µg/mL
- HPLC Testing [C-Inh] ([1]; scavenger 5 mg/ml, casp-inh. 10 μM, 10 kGy): 31.2 µg/mL
- HPLC Testing [C-Inh] ([1]; scavenger 5 mg/ml, casp-inh. 10 μM, 20 kGy): 26.8 µg/mL
- HPLC Testing [C-Inh] ([1]; scavenger 5 mg/ml, casp-inh. 10 μM, 30 kGy): 23.7 µg/mL
- HPLC Testing [C-Inh] ([1]; scavenger 5 mg/ml, casp-inh. 15 μM, 0 kGy): 55.5 µg/mL
- HPLC Testing [C-Inh] ([1]; scavenger 5 mg/ml, casp-inh. 15 μM, 10 kGy): 46.4 µg/mL
- HPLC Testing [C-Inh] ([1]; scavenger 5 mg/ml, casp-inh. 15 μM, 20 kGy): 40.6 µg/mL
- HPLC Testing [C-Inh] ([1]; scavenger 5 mg/ml, casp-inh. 15 μM, 30 kGy): 35.5 µg/mL
- HPLC Testing [C-Inh] ([1]; scavenger 10 mg/ml, casp-inh. 5 μM, 0 kGy): 18.4 µg/mL
- HPLC Testing [C-Inh] ([1]; scavenger 10 mg/ml, casp-inh. 5 μM, 10 kGy): 16.0 µg/mL
- HPLC Testing [C-Inh] ([1]; scavenger 10 mg/ml, casp-inh. 5 μM, 20 kGy): 13.5 µg/mL
- Protection against gamma irradiation [1, 6]: high
Compound: O=C1O[C@H]([C@@H](O)CO)C(O)=C1O [Ascorbic acid]
- average total copy numbers of the 500 bp fragment of the 18S rDNA gene ([2]; scavenger 20 mg/ml, directly after blood collection, FIG. 5): reduced ccfDNA absolute copy numbers
- Effect on ccfDNA stability [2, 6]: neutral

- HPLC Testing [C-Inh] ([1]; scavenger 0.05 mg/ml, casp-inh. 5 μM, 0 kGy): 19.1 µg/mL
- HPLC Testing [C-Inh] ([1]; scavenger 0.05 mg/ml, casp-inh. 5 μM, 10 kGy): 14.1 µg/mL
- HPLC Testing [C-Inh] ([1]; scavenger 0.05 mg/ml, casp-inh. 5 μM, 20 kGy): 8.9 µg/mL
- HPLC Testing [C-Inh] ([1]; scavenger 0.05 mg/ml, casp-inh. 5 μM, 30 kGy): 6.6 µg/mL
- [Casp] (Pre-Irr) ([1]; scavenger 100 μg/ml-320 μM): 16.454 µg/mL
- [Casp] (Post-Irr) ([1]; scavenger 100 μg/ml-320 μM): 10.4422 µg/mL
- HPLC Testing [C-Inh] ([1]; scavenger 0.1 mg/ml, casp-inh. 5 μM, 0 kGy): 18.8 µg/mL
- HPLC Testing [C-Inh] ([1]; scavenger 0.1 mg/ml, casp-inh. 5 μM, 10 kGy): 14.3 µg/mL
- HPLC Testing [C-Inh] ([1]; scavenger 0.1 mg/ml, casp-inh. 5 μM, 20 kGy): 9.9 µg/mL
- HPLC Testing [C-Inh] ([1]; scavenger 0.1 mg/ml, casp-inh. 5 μM, 30 kGy): 7.5 µg/mL
- HPLC Testing [C-Inh] ([1]; scavenger 0.1 mg/ml, casp-inh. 10 μM, 0 kGy): 37.9 µg/mL
- HPLC Testing [C-Inh] ([1]; scavenger 0.1 mg/ml, casp-inh. 10 μM, 10 kGy): 29.4 µg/mL
- HPLC Testing [C-Inh] ([1]; scavenger 0.1 mg/ml, casp-inh. 10 μM, 20 kGy): 23.3 µg/mL
- HPLC Testing [C-Inh] ([1]; scavenger 0.1 mg/ml, casp-inh. 10 μM, 30 kGy): 17.7 µg/mL
- HPLC Testing [C-Inh] ([1]; scavenger 0.1 mg/ml, casp-inh. 15 μM, 0 kGy): 55.5 µg/mL
- HPLC Testing [C-Inh] ([1]; scavenger 0.1 mg/ml, casp-inh. 15 μM, 10 kGy): 42.7 µg/mL
- HPLC Testing [C-Inh] ([1]; scavenger 0.1 mg/ml, casp-inh. 15 μM, 20 kGy): 33.2 µg/mL
- HPLC Testing [C-Inh] ([1]; scavenger 0.1 mg/ml, casp-inh. 15 μM, 30 kGy): 25.0 µg/mL
- HPLC Testing [C-Inh] ([1]; scavenger 0.2 mg/ml, casp-inh. 5 μM, 0 kGy): 19.9 µg/mL
- HPLC Testing [C-Inh] ([1]; scavenger 0.2 mg/ml, casp-inh. 5 μM, 20 kGy): 11.9 µg/mL
- HPLC Testing [C-Inh] ([1]; scavenger 0.2 mg/ml, casp-inh. 5 μM, 30 kGy): 10.2 µg/mL
- HPLC Testing [C-Inh] ([1]; scavenger 0.5 mg/ml, casp-inh. 5 μM, 10 kGy): 15.4 µg/mL
- HPLC Testing [C-Inh] ([1]; scavenger 0.5 mg/ml, casp-inh. 5 μM, 20 kGy): 12.3 µg/mL
- HPLC Testing [C-Inh] ([1]; scavenger 0.5 mg/ml, casp-inh. 5 μM, 30 kGy): 11.1 µg/mL
- HPLC Testing [C-Inh] [1, 3]: 20.0 µg/mL
- HPLC Testing [C-Inh] [1, 4]: 13.8 µg/mL
- HPLC Testing [C-Inh] [1, 5]: 12.6 µg/mL
- Protection against gamma irradiation [1, 8]: high
Compound: N[C@@H](CCC(=O)N[C@@H](CS)C(=O)NCC(=O)O)C(=O)O [Glutathione]
- Effect on ccfDNA stability [2, 8]: neutral

- Protection against gamma irradiation ([1]; scavenger 5 mg/ml, 0.5% (w/v)): none
- [Casp] (Pre-Irr) ([1]; scavenger 0.5%): 16.554 µg/mL
- [Casp] (Post-Irr) ([1]; scavenger 0.5%): 1.0667 µg/mL
Compound: OC[C@@H](O)[C@@H](O)[C@H](O)[C@H](O)CO [Mannitol]

- [Casp] (Pre-Irr) ([1]; scavenger 2 mg/ml-12 mM): 16.468 µg/mL
- [Casp] (Post-Irr) ([1]; scavenger 2 mg/ml-12 mM): 14.1849 µg/mL
- Protection against gamma irradiation [1, 9]: high
Compound: CC(=O)N[C@@H](CS)C(=O)O [N-acetyl-L-cysteine]
- protection of caspase inhibitors from gamma-irradiation (copy numbers of the 500 bp fragment) ([2]; 0.5 mg/ml in reagent, 30 kGy, 6 donors, 5 days at room temperature, FIG. 10): efficiently protected the caspase inhibitors Boc-D-(OMe)-FMK and Z-VAD (OMe)-FMK from gamma-irradiation
- Effect on ccfDNA stability [2, 9]: neutral

- [Casp] (Pre-Irr) ([1]; scavenger 4 mM): 16.534 µg/mL
- [Casp] (Post-Irr) ([1]; scavenger 4 mM): 3.0195 µg/mL
- [Casp] (Pre-Irr) ([1]; scavenger 5 mM in DMSO): 16.649 µg/mL
- [Casp] (Post-Irr) ([1]; scavenger 5 mM in DMSO): 3.3548 µg/mL
Compound: Cc1c(C)c2c(c(C)c1O)CCC(C)(C(=O)O)O2 (stereo not drawn) [Trolox, 6-hydroxy-2,5,7,8-tetramethylchromane-2-carboxylic acid]

- [Casp] (Pre-Irr) ([1]; scavenger 0.6 mM): 16.550 µg/mL
- [Casp] (Post-Irr) ([1]; scavenger 0.6 mM): 0.8856 µg/mL
- Protection against gamma irradiation ([1]; scavenger 0.74 mg/ml, 0.07% (v/v)): none
Compound: CCCCCCCC/C=C\CCCCCCCC(=O)OCCOCC(OCCO)C1OCC(OCCO)C1OCCO (stereo not drawn) [Tween-80]
